Article PMC10468942, “A Fluorescent Probe as a Lead Compound for a Selective α-Synuclein PET Tracer: Development of a Library of 2-Styrylbenzothiazoles and Biological Evaluation of [^18F]PFSB and [^18F]MFSB” (ACS Omega, 2023)
Values joined by “and” are separate entries in the source; they are usually repeats but may differ in a detail not shown here. Identical values can stand only once.

Tests used:
[1] = target: T1, αSYN fibrils (Homo sapiens, UniProt P37840); assay: [^3H]PiB competition binding assay on αSYN fibrils
T1 construct: cloning of the DNA construct encoding full-length αSYN into the pET-22b vector; made in house; host or cells: Escherichia coli BL21
Experimental: Following the cloning of the DNA construct encoding full-length αSYN into the pET-22b vector and its transformation into BL21 cells, the expression of human αSYN from a prokaryotic host was induced overnight in Escherichia coli at 20 °C with 0.5 mM IPTG. The cells were harvested by centrifugation, resuspended in 20 mM Tris-HCl pH 7.6, 25 mM NaCl and 1× complete protease inhibitor (Roche, Basel, Switzerland), and lysed by sonication. […] Anion exchange chromatography (HiTrap Q, GE Healthcare, Chicago, Illinois) was used to trap the produced αSYN, which was eluted with NaCl 0.1 M over 20 column volumes. Fractions containing αSYN were concentrated and further purified through a Superdex 75 SEC column equilibrated with PBS. […] A 4 mg/mL solution of αSYN in 20 mM K3PO4 pH 9.1 was placed in an orbital shaker at 37 °C, 1000 rpm for 5 days to prepare P91s. The assemblies were either sonicated with cycles of 20 s on and 10 s off at 50% amplitude (Q800R3, Qsonica) for a total of 10 min or directly aliquoted in volumes of 10 μL each stored at −80 °C until use. […] The final products were aliquoted, frozen on dry ice, and stored at −80 °C until use.
(§1) Concentrations of αSYN and Aβ1-42 fibrils were as described above.
(§2) Plates were incubated on a shaker (MaxQ 6000, Thermo Fisher Scientific, Inc., Marietta, OH) at 50 rpm for 2 h at 37 °C, covered by removable sealing tapes (PerkinElmer, Waltham, MA). Vacuum filtration and read-out were performed as previously reported.[17] […] Data points were fitted using nonlinear regression analysis in GraphPad Prism (GraphPad Software, Inc., Version 8.4.0, La Jolla).

[2] = target: T1, αSYN fibrils; assay: [^3H]MODAG-001 competition binding assay on αSYN fibrils; conditions: for Ki: n = 2, single determinations
Experimental: Following the cloning of the DNA construct encoding full-length αSYN into the pET-22b vector and its transformation into BL21 cells, the expression of human αSYN from a prokaryotic host was induced overnight in Escherichia coli at 20 °C with 0.5 mM IPTG. The cells were harvested by centrifugation, resuspended in 20 mM Tris-HCl pH 7.6, 25 mM NaCl and 1× complete protease inhibitor (Roche, Basel, Switzerland), and lysed by sonication. Additionally, they were boiled for 15 min and centrifuged at 12 000g for 30 min. Anion exchange chromatography (HiTrap Q, GE Healthcare, Chicago, Illinois) was used to trap the produced αSYN, which was eluted with NaCl 0.1 M over 20 column volumes. Fractions containing αSYN were concentrated and further purified through a Superdex 75 SEC column equilibrated with PBS. Additional purification was conducted via a high-capacity endotoxin removal spin column (Pierce, Waltham, Massachusetts), affording an endotoxin level below 1.0 EU/mg. The monomeric state and monodispersity of pure αSYN were confirmed by dynamic light scattering and fibrillation was performed according to the protocol from Makky et al.[26] A 4 mg/mL solution of αSYN in 20 mM K3PO4 pH 9.1 was placed in an orbital shaker at 37 °C, 1000 rpm for 5 days to prepare P91s. The assemblies were either sonicated with cycles of 20 s on and 10 s off at 50% amplitude (Q800R3, Qsonica) for a total of 10 min or directly aliquoted in volumes of 10 μL each stored at −80 °C until use. The method for Aβ1-42 fibrils generation was adapted from Bagchi et al. and described in Kuebler et al.[17],[27] […]
Plates were incubated on a shaker (MaxQ 6000, Thermo Fisher Scientific, Inc., Marietta, OH) at 50 rpm for 2 h at 37 °C, covered by removable sealing tapes (PerkinElmer, Waltham, MA). Vacuum filtration and read-out were performed as previously reported.[17] […]

[3] = target: T2, Aβ1-42 fibrils (Homo sapiens, UniProt P05067); assay: [^3H]PiB competition binding assay on Aβ fibrils; conditions: for competition with [^3H]PiB / binding to Aβ fibrils (in words): Aβ1–42 fibrils
T2 construct: Synthetic lyophilized human Aβ1-42 peptide; purchased EMC Microcollections, Tuebingen, Germany; host or cells: synthetic peptide
Experimental: Following the cloning of the DNA construct encoding full-length αSYN into the pET-22b vector and its transformation into BL21 cells, the expression of human αSYN from a prokaryotic host was induced overnight in Escherichia coli at 20 °C with 0.5 mM IPTG. The cells were harvested by centrifugation, resuspended in 20 mM Tris-HCl pH 7.6, 25 mM NaCl and 1× complete protease inhibitor (Roche, Basel, Switzerland), and lysed by sonication. […] Anion exchange chromatography (HiTrap Q, GE Healthcare, Chicago, Illinois) was used to trap the produced αSYN, which was eluted with NaCl 0.1 M over 20 column volumes. Fractions containing αSYN were concentrated and further purified through a Superdex 75 SEC column equilibrated with PBS. […] A 4 mg/mL solution of αSYN in 20 mM K3PO4 pH 9.1 was placed in an orbital shaker at 37 °C, 1000 rpm for 5 days to prepare P91s. The assemblies were either sonicated with cycles of 20 s on and 10 s off at 50% amplitude (Q800R3, Qsonica) for a total of 10 min or directly aliquoted in volumes of 10 μL each stored at −80 °C until use. The method for Aβ1-42 fibrils generation was adapted from Bagchi et al. and described in Kuebler et al.[17],[27] […] Aggregation was induced by incubation in an Eppendorf Thermomixer at 37 °C with shaking at 800 rpm for 72 h. The resulting fibrils were sonicated for 3 min in a water bath (Elmasonic S 60 H, Elma Schmidbauer GmbH, Singen, Germany). The final products were aliquoted, frozen on dry ice, and stored at −80 °C until use.
as §1, §2

[4] = system: αSYN pathology in human brain slices (MSA, PD, AD, control); assay: In vitro autoradiography on human brain slices; assay type: binding; conditions: 10 nM tracer; for AD/frontal cortex SB ratio: AD sample vs frontal cortex control
Experimental: Post-mortem human brain slices (10 μm thickness) were obtained from the subject cases and were analyzed by the Neurobiobank München (NBM, Munich, Germany), where tissues were collected on the basis of written informed consent according to the guidelines of the ethics committee of the Ludwig Maximilians University of Munich, Germany (# 345-13). The use of brain tissue samples in this study was approved by the ethics committee of the Faculty of Medicine at the University of Tuebingen (Ethics approval number: 813/2018BO2). Table S4 (Supporting Information) summarizes the information of the subjects from which samples were obtained and used in the experiment.
For autoradiography, frozen brain slices were thawed for 1 h before preincubation in bovine serum albumin (BSA) buffer for 25 min at room temperature. To determine total binding (TB), brain slices were incubated with the tracer (10 nM [^18F]PFSB, 10 nM [^18F]MFSB). Incubation of consecutive slices with the corresponding nonradioactive compounds (10 μM PFSB, 10 μM MFSB) was performed to determine nonspecific binding (NSB). The nonradioactive compounds were prepared by dissolving in DMSO to 10 mM, which yielded a DMSO concentration of ≤0.1% in the final solution. Incubation was carried out for 1 hour at room temperature with subsequent washing in cold BSA buffer (3 × 10 min) followed by three dippings in cold deionized water. After drying under an IR lamp, brain slices were exposed to a storage phosphor screen (Molecular Dynamics, Caesarea, Israel) for 18 h, which was then scanned in a phosphor imager (STORM 840, Molecular Dynamics, Sunnyvale, CA).
Quantitative data analysis was performed by drawing four regions of interest (ROIs) in relevant areas of the slice and one ROI next to it for background subtraction (Figures S7 and S8; ImageJ 1.8.0_172, National Institute of Health, Bethesda, MD).[28] Specific binding (SB) is obtained by subtracting NSB from TB. The SB disease/SB control ratio was calculated by dividing by the SB in diseased tissues with the respective SB in control tissues.

[5] = In vivo dynamic PET/MR imaging in healthy wild-type mice; design: species or system C57BL/6J mice
Experimental: The animal experiments were performed in compliance with the European directives on the protection and use of laboratory animals (Council Directive 2010/63/UE) and the German animal welfare act with approval from the local authorities (Regierungspräsidium Tuebingen, R3/19G). Healthy wild-type female C57BL/6J mice (20.3 ± 0.9 g; 9 weeks old) purchased from Charles River Laboratories (Sulzbach, Germany) were maintained in our vivarium on a 12:12 hour light–dark cycle, and were kept at a temperature of 22 °C with 40–60% humidity and free access to a standard diet and tap water.
The mice (n = 3) were anesthetized with 1.5% isoflurane evaporated in 100% oxygen at a flow rate of 0.8 L/min. A body temperature of 37 °C was maintained using a feedback temperature control unit. PET imaging studies were performed on Inveon dedicated microPET system (Inveon D-PET, Siemens, Knoxville, TN). Five seconds after the start of PET acquisition, the mice were injected intravenously with 9.9 ± 0.6 MBq of [^18F]MFSB (Am = 46.2 ± 2.5 GBq/μmol at the time of injection). The 1 h dynamic acquisitions were divided into 39 time frames (12 × 5 s, 6 × 10 s, 6 × 30 s, 5 × 60 s, and 10 × 300 s). A 13-min transmission measurement with a cobalt-57 point source was performed for attenuation correction. Subsequently, an anatomical MR scan with a 7 Tesla MR scanner (ClinScan, Bruker BioSpin MRI GmbH, Ettlingen, Germany) using a rat whole-body volume coil and the Paravision software (v6.0.1, Bruker, Ettlingen, Germany) using a T2-weighted Turbo-RARE MRI sequence.
The PET image was reconstructed via the OSEM3D/SP-MAP reconstruction algorithm and coregistered to the whole-body MRI scan. Volumes of interest (VOIs) were hand-drawn for the relevant organs based on the MR anatomy in PMOD (PMOD Technologies, Faellanden, Switzerland, Version 4.2) and VOIs at different regions in the mouse brain were extracted using the atlas provided by PMOD to calculate the respective time–activity curves (TACs). Standardized uptake values (SUVs) were calculated as a ratio of the detected activity with injected activity and weight (SUV = (TAC (kBq/cc)/inj. activity (kBq)) × weight (g)).

[6] = mice n = 3, i.v., 60 min dynamic PET
[7] = Ki, αSYN [^3H]PiB competition, mean Ki ± SEM, n = 3, or single determinations

T2 sequence (P05067 672-713 limits assumed): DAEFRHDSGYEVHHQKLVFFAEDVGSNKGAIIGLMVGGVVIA

## Fc1ccc2nc(C=Cc3ccc(N4CCCCC4)cc3)sc2c1 [9a, 6-Fluoro-2-(4-(piperidin-1-yl)styryl)benzo[d]thiazole]
[1]; nonmethylated compounds, Table 1, two values in a cell = single determinations, a: mean Ki ± SEM of three data points, b: single data point, read-out: Ki
  Ki: 25.4 ± 2.3 nM
[2]
  Ki: 125 nM and 159 nM
[3]
  competition with [^3H]PiB / binding to Aβ fibrils (in words): None of the tested compounds appreciably competed against [^3H]PiB

## [18F]c1ccc2nc(/C=C/c3ccc(N4CCOCC4)cc3)sc2c1 [[^18F]MFSB]
[4]
  AD/frontal cortex SB ratio: remained favorable
[5]; [6]
  SUV, TAC peak value, blood: 6.94 ± 0.71
  SUV, TAC peak value, brain: 1.79 ± 0.02
  SUV, TAC peak value, kidney: 2.70 ± 0.27
  SUV, TAC peak value, liver: 5.00 ± 0.35
  SUV, TAC peak value, lung: 4.43 ± 0.33
[5]; mice n = 3, i.v., at 60 min
  SUV, TAC peak value, bone: 1.52 ± 0.20
[5]; mice, PET
  SUV peak in the cerebellum: up to 1.76
  SUV peak in the frontal cortex: up to 1.58
  SUVbrain/SUVblood: 2.7
[5]; mice, PET TAC
  Time to peak, bone: 60 min
  Time to peak, brain: 25 min
  Time to peak, kidney: 110 s
  Time to peak, liver: 90 s
  Time to peak, lung: 15 s
[5]; mice, PET TAC over 60 min
  AUC, brain: 98.13 ± 1.30
  AUC, kidney: 102.27 ± 1.33
  AUC, liver: 188.40 ± 6.15
  AUC, lung: 51.22 ± 3.94

## [18F]c1ccc2nc(/C=C/c3ccc(N4CCCCC4)cc3)sc2c1 [[^18F]PFSB]
[4]
  AD/frontal cortex SB ratio: 1.06
[4]; MSA patient slices vs control, n = 1
  specific binding signal intensity ratio MSA / control of the same brain area: 3.7 and 4.2

## Fc1ccc2nc(C=CC=Cc3ccc(N4CCCCC4)cc3)sc2c1 [compound 43, 6-Fluoro-2-(4-(4-(piperidin-1-yl)phenyl)buta-1,3-dien-1-yl)benzo[d]thiazole]
[1]; [7]
  Ki: 213 ± 122 nM
[1]; [^3H]PiB competition
  fold reduction of affinity compared to 14a: ~3 fold
[3]
  competition with [^3H]PiB / binding to Aβ fibrils (in words): remained low

## Fc1ccc2nc(C=CC=Cc3ccc(N4CCCC4)cc3)sc2c1 [compound 44, 6-Fluoro-2-(4-(4-(pyrrolidin-1-yl)phenyl)buta-1,3-dien-1-yl)benzo[d]thiazole]
[1]; [7]
  Ki: 85 ± 41 nM
[3]
  competition with [^3H]PiB / binding to Aβ fibrils (in words): remained low

## Fc1ccc2nc(C=Cc3ccc(N4CCOCC4)cc3)sc2c1 [compound 45, 4-(4-(2-(6-Fluorobenzo[d]thiazol-2-yl)vinyl)phenyl)morpholine]
[1]; [7]
  Ki: 10.3 ± 4.7 nM
[1]; [^3H]PiB competition, Ki-MFSB vs Ki-PFSB
  factor of affinity improvement compared to PFSB: 2.5
[2]; [^3H]MODAG-001 competition
  fold lower Ki than PFSB: 4.6 fold
[2]
  Ki: 20.3 nM and 41.2 nM
[3]; [^3H]PiB competition on αSYN and Aβ fibrils
  αSYN/Aβ selectivity (in words): remained unchanged
